Source: US20260209223A1, “FGFR3 INHIBITOR COMPOUNDS” (TYRA BIOSCIENCES, INC., priority 2022, published 2026)

Tests used:
FGFR1 = target: T1, FGFR1 (Homo sapiens, UniProt P11362); test: Kinase binding assay (Kd), kinase-tagged T7 phage, affinity beads, qPCR; conditions: in vitro binding assay, 11-point 3-fold dilution series
T1 construct: made in house; host or cells: E. coli (BL21-derived) infected with T7 phage
Description: (§1) Kinase-tagged T7 phage strains were prepared in an E. coli host derived from the BL21 strain. E. coli were grown to log-phase and infected with T7 phage and incubated with shaking at 32° C. until lysis. The lysates were centrifuged and filtered to remove cell debris. Streptavidin-coated magnetic beads were treated with biotinylated small molecule ligands for 30 minutes at room temperature to generate affinity resins for kinase assays. The liganded beads were blocked with excess biotin and washed with blocking buffer SeaBlock (Pierce), 1% BSA, 0.05% Tween 20, 1 mM DTT to remove unbound ligand and to reduce non-specific binding. Binding reactions were assembled by combining kinases, liganded affinity beads, and test compounds in 1× binding buffer (20% SeaBlock, 0.17×PBS, 0.05% Tween 20, 6 mM DTT).
(§2) Test compounds were prepared as 111× stocks in 100% DMSO. Kds were determined using an 11-point 3-fold compound dilution series with three DMSO control points. All compounds for Kd measurements are distributed by acoustic transfer (non-contact dispensing) in 100% DMSO. The compounds were then diluted directly into the assays such that the final concentration of DMSO was 0.9%. All reactions performed in polypropylene 384-well plate. Each was a final volume of 0.02 ml. The assay plates were incubated at room temperature with shaking for 1 hour and the affinity beads were washed with wash buffer (1×PBS, 0.05% Tween 20). The beads were then re-suspended in elution buffer (1×PBS, 0.05% Tween 20, 0.5 μM non-biotinylated affinity ligand) and incubated at room temperature with shaking for 30 minutes. The kinase concentration in the eluates was measured by qPCR.
(§3) Binding constants were calculated with a standard dose-response curve using the Hill equation: […]
(§4) The Hill Slope was set to −1. Curves were fitted using a non-linear least square fit with the Levenberg-Marquardt algorithm.

FGFR3 = target: T2, FGFR3 (Homo sapiens, UniProt P22607); test: as above; conditions: in vitro binding assay, 11-point 3-fold dilution series
T2 construct: made in house; host or cells: E. coli (BL21-derived) infected with T7 phage
T2 sequence (P22607 23-806): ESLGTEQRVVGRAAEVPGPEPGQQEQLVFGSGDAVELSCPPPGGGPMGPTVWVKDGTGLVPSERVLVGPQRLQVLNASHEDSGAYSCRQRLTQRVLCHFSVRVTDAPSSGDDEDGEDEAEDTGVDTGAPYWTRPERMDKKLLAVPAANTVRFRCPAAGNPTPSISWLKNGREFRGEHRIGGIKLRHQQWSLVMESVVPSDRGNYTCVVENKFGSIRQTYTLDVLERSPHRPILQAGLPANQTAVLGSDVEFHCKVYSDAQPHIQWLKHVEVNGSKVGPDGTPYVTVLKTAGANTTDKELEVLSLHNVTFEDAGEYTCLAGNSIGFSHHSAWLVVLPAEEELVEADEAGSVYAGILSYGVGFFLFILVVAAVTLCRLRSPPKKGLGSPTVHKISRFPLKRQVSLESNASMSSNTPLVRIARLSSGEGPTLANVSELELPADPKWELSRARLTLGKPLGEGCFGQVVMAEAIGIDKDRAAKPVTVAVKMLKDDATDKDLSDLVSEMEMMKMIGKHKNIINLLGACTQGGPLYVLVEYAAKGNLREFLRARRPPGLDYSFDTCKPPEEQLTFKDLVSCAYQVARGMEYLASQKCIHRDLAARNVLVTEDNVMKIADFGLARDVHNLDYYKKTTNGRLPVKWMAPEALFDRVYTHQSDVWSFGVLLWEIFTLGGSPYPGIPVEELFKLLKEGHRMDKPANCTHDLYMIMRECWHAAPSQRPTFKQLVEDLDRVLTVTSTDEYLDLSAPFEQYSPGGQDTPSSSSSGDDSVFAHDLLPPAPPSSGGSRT
Description: as §1, §2, §3, §4

Ba/F3 BCR-FGFR1 = target: T3, Ba/F3 BCR-FGFR1 (Homo sapiens, UniProt P11362); test: Ba/F3 cell viability assay (CellTiter-Glo 2.0); assay type: cell-based; conditions: Ba/F3 cell data, BCR-FGFR1 fusion, 48 hours
T3 construct: BCR (fusion partner); host or cells: Ba/F3; the other entry of the earlier key: BCR (P11274, Breakpoint cluster region protein)
T3 sequence (P11362 478-767 limits assumed): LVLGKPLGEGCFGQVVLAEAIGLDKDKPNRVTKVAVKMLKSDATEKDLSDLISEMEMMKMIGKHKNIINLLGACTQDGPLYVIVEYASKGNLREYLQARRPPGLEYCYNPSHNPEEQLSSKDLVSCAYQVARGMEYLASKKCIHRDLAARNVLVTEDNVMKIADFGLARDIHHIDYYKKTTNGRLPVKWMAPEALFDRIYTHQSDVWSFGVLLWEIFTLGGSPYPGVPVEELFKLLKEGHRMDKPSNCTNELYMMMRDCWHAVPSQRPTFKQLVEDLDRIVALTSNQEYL

Ba/F3 BCR-FGFR2 = target: T4, Ba/F3 BCR-FGFR2 (Homo sapiens, UniProt P21802); test: Ba/F3 cell viability assay (CellTiter-Glo 2.0); assay type: cell-based; conditions: Ba/F3 cell data, BCR-FGFR2 fusion, 48 hours
T4 construct: BCR (fusion partner); host or cells: Ba/F3; the other entry of the earlier key: BCR (P11274, Breakpoint cluster region protein)
T4 sequence (P21802 481-770 limits assumed): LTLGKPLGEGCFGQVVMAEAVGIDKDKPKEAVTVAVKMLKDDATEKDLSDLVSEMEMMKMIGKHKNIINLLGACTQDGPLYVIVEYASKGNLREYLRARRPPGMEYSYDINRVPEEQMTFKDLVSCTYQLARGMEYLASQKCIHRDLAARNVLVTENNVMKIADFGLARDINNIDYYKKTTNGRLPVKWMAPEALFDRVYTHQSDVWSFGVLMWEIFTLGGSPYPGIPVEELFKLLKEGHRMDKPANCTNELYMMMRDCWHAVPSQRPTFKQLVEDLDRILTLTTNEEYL

Ba/F3 FGFR3-BAIAP2L1 = target: T5, Ba/F3 FGFR3-BAIAP2L1 (Homo sapiens, UniProt P22607); test: Ba/F3 cell viability assay (CellTiter-Glo 2.0); assay type: cell-based; conditions: Ba/F3 cell data, FGFR3-BAIAP2L1 fusion, 48 hours
T5 construct: BAIAP2L1 (fusion partner, Q9UHR4 if human); host or cells: Ba/F3; the other entry of the earlier key: BAIAP2L1 (Q9UHR4, BAR/IMD domain-containing adapter protein 2-like 1)
T5 sequence (P22607 397-758 limits assumed): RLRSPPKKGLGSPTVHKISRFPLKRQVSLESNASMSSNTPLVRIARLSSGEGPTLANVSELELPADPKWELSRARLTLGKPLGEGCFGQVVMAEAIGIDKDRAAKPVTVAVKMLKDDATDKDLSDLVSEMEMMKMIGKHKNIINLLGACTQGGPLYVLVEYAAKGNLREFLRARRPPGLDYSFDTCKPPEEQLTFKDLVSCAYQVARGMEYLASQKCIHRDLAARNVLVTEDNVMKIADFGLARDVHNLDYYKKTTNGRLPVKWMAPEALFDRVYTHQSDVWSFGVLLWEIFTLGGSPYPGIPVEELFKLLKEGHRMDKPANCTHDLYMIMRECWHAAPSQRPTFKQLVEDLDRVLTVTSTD

Ba/F3 ETV5-FGFR4 = target: T6, Ba/F3 ETV5-FGFR4 (Homo sapiens, UniProt P22455); test: Ba/F3 cell viability assay (CellTiter-Glo 2.0); assay type: cell-based; conditions: Ba/F3 cell data, ETV5-FGFR4 fusion, 48 hours
T6 construct: host or cells: Ba/F3; the other entry of the earlier key: ETV5 (P41161, ETS translocation variant 5)
T6 sequence (P22455 467-755 limits assumed): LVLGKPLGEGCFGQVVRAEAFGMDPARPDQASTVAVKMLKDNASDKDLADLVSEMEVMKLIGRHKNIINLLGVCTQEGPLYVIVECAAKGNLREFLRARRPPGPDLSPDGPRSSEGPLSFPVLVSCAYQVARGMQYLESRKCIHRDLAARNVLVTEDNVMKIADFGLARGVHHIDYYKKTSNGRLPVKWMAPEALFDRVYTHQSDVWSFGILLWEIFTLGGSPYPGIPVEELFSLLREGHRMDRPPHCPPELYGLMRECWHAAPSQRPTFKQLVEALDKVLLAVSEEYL
Text: Experimental Purpose: Recombinant kinase fusions are transduced into parental Ba/F3, which becomes dependent upon this constitutive kinase activity for IL3-independent survival. Inhibition of kinase activity leads to cell death, which is monitored using CellTiter-Glo® 2.0 (Promega) which measures intracellular ATP concentration that in turn serves as a marker for viability. BCR-FGFR1 Ba/F3, BCR-FGFR2 and FGFR3-BAIAP2L1 Ba/F3 were obtained from Advanced Cellular Dynamics (Seattle, WA). ETV6-FGFR4 was obtained from Kyinno (Waltham, MA).
Cell Viability Assay Procedure: Cell Titer-Glo® 2.0 Luminescent cell viability assay reagent was purchased from Promega (Madison, WI). Ba/F3 cell lines were cultured in RPMI1640 media supplemented with 10% fetal bovine serum. Cultures were maintained at 37° C. in a humidified atmosphere of 5% CO2 and 95% air.
Cells were plated in 96-well clear bottom/white plates (Corning #3903) at 10,000 cells/well in 100 μl of media, incubated overnight. The next day, test compound DMSO stock solutions were made at 10 mM and 2 μM final concentration. Compounds were then added to cells in a 9-dose, 10-fold dilution series starting at 30 μM with an HP 300e Digital Dispenser (each dose was applied in triplicate). DMSO was backfilled to each well up to 301 nL total volume of test compound+DMSO, and a total of 301 nL DMSO was added to a control/no test compound well in triplicate. The cells in cell culture plates were incubated with the compounds at 37° C. and 5% CO2 for 48 hours. Then 50 μl of Cell Titer Glo 2.0 reagent was added to each well of the cell culture plates. The contents were covered from light and mixed on an orbital shaker at room temperature for 10 min. Luminescence was recorded by a Synergy H1 Microplate Reader (Biotek, Winooski, VT). Cells were assessed as a percentage of DMSO only treated control cells. Curves were plotted and IC50 values were calculated using the GraphPad Prism 8 program based on a sigmoidal dose-response equation (4 parameter).

FGFR2 = target: T7, FGFR2 (Homo sapiens, UniProt P21802); test: Kinase binding assay (Kd), kinase-tagged T7 phage, affinity beads, qPCR; conditions: in vitro binding assay, 11-point 3-fold dilution series
T7 construct: made in house; host or cells: E. coli (BL21-derived) infected with T7 phage
T7 sequence (P21802 22-821): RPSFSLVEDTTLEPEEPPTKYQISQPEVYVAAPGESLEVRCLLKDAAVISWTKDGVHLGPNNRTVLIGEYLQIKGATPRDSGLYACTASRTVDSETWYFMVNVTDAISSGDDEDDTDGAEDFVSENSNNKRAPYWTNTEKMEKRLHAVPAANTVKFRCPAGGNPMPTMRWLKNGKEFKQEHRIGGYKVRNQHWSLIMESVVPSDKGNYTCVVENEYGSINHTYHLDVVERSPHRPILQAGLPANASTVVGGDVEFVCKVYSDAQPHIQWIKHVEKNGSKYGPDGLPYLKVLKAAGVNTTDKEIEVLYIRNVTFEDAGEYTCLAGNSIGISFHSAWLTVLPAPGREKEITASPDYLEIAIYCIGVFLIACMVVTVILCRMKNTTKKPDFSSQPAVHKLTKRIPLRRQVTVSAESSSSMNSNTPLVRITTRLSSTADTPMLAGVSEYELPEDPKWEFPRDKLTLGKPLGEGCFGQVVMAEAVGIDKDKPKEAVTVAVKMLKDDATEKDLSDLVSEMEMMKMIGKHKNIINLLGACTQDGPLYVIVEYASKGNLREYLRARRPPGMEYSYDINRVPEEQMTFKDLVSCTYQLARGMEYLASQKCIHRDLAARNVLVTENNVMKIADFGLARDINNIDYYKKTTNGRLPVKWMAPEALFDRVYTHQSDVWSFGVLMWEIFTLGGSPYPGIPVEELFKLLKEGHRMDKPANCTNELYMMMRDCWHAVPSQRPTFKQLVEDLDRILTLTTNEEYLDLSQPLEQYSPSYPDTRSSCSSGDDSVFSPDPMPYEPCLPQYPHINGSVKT
Description: as §1, §2, §3, §4

FGFR3 (V555M) = target: T8, FGFR3 (V555M) (Homo sapiens, UniProt P22607, V555M); test: as above; conditions: in vitro binding assay, 11-point 3-fold dilution series
T8 construct: made in house; host or cells: E. coli (BL21-derived) infected with T7 phage
T8 sequence (P22607 23-806 V555M): as the sequence (P22607 23-806) above, with V533M counted along it
Description: as §1, §2, §3, §4

FGFR4 = target: T9, FGFR4 (Homo sapiens, UniProt P22455); test: as above; conditions: in vitro binding assay, 11-point 3-fold dilution series
T9 construct: made in house; host or cells: E. coli (BL21-derived) infected with T7 phage
T9 sequence (P22455 22-802): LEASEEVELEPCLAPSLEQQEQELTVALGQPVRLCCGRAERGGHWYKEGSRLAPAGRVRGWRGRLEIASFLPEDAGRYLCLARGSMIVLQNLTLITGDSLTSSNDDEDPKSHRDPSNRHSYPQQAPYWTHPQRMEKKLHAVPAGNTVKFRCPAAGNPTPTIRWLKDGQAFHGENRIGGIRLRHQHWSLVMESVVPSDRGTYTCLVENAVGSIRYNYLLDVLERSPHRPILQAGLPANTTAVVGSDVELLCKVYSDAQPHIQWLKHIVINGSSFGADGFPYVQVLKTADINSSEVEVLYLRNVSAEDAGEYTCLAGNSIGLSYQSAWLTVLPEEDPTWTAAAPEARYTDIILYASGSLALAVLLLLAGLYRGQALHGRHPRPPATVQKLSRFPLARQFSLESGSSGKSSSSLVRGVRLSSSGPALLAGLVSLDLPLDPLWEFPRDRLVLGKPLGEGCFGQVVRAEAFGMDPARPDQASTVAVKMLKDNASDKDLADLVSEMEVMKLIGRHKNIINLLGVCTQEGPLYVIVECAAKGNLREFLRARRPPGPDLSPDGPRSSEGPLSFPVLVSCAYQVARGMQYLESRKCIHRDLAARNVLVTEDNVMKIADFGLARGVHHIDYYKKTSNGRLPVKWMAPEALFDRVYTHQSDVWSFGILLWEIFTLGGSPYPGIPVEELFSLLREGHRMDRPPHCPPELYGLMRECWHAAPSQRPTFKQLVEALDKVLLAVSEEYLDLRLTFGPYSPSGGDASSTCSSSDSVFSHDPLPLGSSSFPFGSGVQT
Description: as §1, §2, §3, §4

T1 sequence (P11362 22-822): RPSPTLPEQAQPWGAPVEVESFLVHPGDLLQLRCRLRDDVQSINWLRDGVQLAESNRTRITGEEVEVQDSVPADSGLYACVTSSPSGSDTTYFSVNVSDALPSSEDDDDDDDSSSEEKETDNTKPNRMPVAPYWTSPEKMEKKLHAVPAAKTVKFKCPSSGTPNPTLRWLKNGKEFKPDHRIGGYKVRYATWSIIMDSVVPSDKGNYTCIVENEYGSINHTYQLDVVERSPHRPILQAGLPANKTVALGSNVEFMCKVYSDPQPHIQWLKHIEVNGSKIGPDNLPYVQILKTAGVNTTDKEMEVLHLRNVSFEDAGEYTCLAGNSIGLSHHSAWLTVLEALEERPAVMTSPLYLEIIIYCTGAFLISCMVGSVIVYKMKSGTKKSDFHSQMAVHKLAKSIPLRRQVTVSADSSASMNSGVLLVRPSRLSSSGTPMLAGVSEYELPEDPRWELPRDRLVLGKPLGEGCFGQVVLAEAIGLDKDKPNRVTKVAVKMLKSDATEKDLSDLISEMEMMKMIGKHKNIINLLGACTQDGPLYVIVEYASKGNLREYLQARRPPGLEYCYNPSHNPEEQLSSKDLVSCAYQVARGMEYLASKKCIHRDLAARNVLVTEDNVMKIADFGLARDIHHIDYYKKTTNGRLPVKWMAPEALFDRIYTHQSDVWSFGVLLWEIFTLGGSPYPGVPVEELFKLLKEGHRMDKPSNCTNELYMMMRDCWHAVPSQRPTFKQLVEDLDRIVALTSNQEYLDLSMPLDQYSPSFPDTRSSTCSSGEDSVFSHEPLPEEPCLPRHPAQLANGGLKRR

Structure (SMILES)	Kd (FGFR1)	Kd (FGFR3)	Kd (FGFR2)	Kd (FGFR3 (V555M))	Kd (FGFR4)	Kd (Ba/F3 BCR-FGFR1)	Kd (Ba/F3 BCR-FGFR2)	Kd (Ba/F3 FGFR3-BAIAP2L1)	Kd (Ba/F3 ETV5-FGFR4)
C=CC(=O)N1CCC2(CC1)CC(n1ncc(-c3cc(O[C@@H](CO)c4ccc(F)cn4)c4c(C#N)cnn4c3)c1C)C2 [Example 10, (R)-6-(1-(7-acryloyl-7-azaspiro[3.5]nonan-2-yl)-5-methyl-1H-pyrazol-4-yl)-4-(1-(5-fluoropyridin-2-yl)-2-hydroxyethoxy)pyrazolo[1,5-a]pyridine-3-carbonitrile]	250 to 1000 nM	250 to 1000 nM	250 to 1000 nM	250 to 1000 nM		≥ 1000 nM	≥ 1000 nM	250 to 1000 nM	≥ 1000 nM
C=CC(=O)N1CC(C(=O)N2CCC(n3nnc(-c4cc(O[C@@H](CO)c5ccccn5)c5c(C#N)cnn5c4)c3C)CC2)C1 [Example 17, (R)-6-(1-(1-(1-acryloylazetidine-3-carbonyl)piperidin-4-yl)-5-methyl-1H-1,2,3-triazol-4-yl)-4-(2-hydroxy-1-(pyridin-2-yl)ethoxy)pyrazolo[1,5-a]pyridine-3-carbonitrile]	≥ 1000 nM	100 to 250 nM	250 to 1000 nM	250 to 1000 nM	≥ 1000 nM				
C#CC(=O)N1CC(OC)(C(=O)N2CCC(n3nnc(-c4cc(OC(CO)c5ccccn5)c5c(C#N)cnn5c4)c3C)CC2)C1 (centres unmarked) [Example 24, 4-(2-hydroxy-1-(pyridin-2-yl)ethoxy)-6-(1-(1-(3-methoxy-1-propioloylazetidine-3-carbonyl)piperidin-4-yl)-5-methyl-1H-1,2,3-triazol-4-yl)pyrazolo[1,5-a]pyridine-3-carbonitrile]	0.1 to 100 nM	0.1 to 100 nM	0.1 to 100 nM	0.1 to 100 nM	0.1 to 100 nM				
C=CC(=O)N1CCC2(CC1)CC(n1cc(-c3cc(O[C@@H](CO)c4ccc(F)cn4)c4c(C#N)cnn4c3)cn1)C2 [Example 25, (R)-6-(1-(7-acryloyl-7-azaspiro[3.5]nonan-2-yl)-1H-pyrazol-4-yl)-4-(1-(5-fluoropyridin-2-yl)-2-hydroxyethoxy)pyrazolo[1,5-a]pyridine-3-carbonitrile]	100 to 250 nM	100 to 250 nM	100 to 250 nM	250 to 1000 nM	250 to 1000 nM				
CCC(=O)N1CCC2(CC1)CC(n1cc(-c3cc(O[C@@H](CO)c4ccc(F)cn4)c4c(C#N)cnn4c3)cn1)C2 [Example 26, (R)-4-(1-(5-fluoropyridin-2-yl)-2-hydroxyethoxy)-6-(1-(7-propionyl-7-azaspiro[3.5]nonan-2-yl)-1H-pyrazol-4-yl)pyrazolo[1,5-a]pyridine-3-carbonitrile]	100 to 250 nM	100 to 250 nM	100 to 250 nM	250 to 1000 nM	250 to 1000 nM				

Second part, led by results:

Kd (FGFR1)	Kd (FGFR3)	Kd (FGFR2)	Kd (FGFR3 (V555M))	Kd (FGFR4)	Structure (SMILES)	Kd (Ba/F3 BCR-FGFR1)	Kd (Ba/F3 BCR-FGFR2)	Kd (Ba/F3 FGFR3-BAIAP2L1)	Kd (Ba/F3 ETV5-FGFR4)
100 to 250 nM	0.1 to 100 nM				C=CC(=O)N1CCC2(CC1)CC(n1ncc(-c3cc(OC(CO)c4ccccn4)c4c(Cl)cnn4c3)c1C)C2 (single isomer, unassigned) [Example 6]	250 to 1000 nM	250 to 1000 nM	0.1 to 100 nM	250 to 1000 nM
≥ 1000 nM	100 to 250 nM	250 to 1000 nM	250 to 1000 nM	≥ 1000 nM	C=CC(=O)N1CC(F)(C(=O)N2CCC(n3nnc(-c4cc(O[C@@H](CO)c5ccccn5)c5c(C#N)cnn5c4)c3C)CC2)C1 (single isomer, unassigned) [Example 19]				
0.1 to 100 nM	0.1 to 100 nM				C=CC(=O)N1CCC2(CC1)CC(n1nnc(-c3cc(O[C@H](C)c4ccccn4)c4c(Cl)cnn4c3)c1C)C2 [Example 4, (R)-1-(2-(4-(3-chloro-4-(1-(pyridin-2-yl)ethoxy)-pyrazolo[1,5-a]pyridin-6-yl)-5-methyl-1H-1,2,3-triazol-1-yl)-7-azaspiro[3.5]nonan-7-yl)prop-2-en-1-one]	100 to 250 nM	100 to 250 nM	0.1 to 100 nM	250 to 1000 nM
≥ 1000 nM	250 to 1000 nM				C=CC(=O)N1CCC2(CC1)CC(n1ncc(-c3cc(O[C@@H](CO)c4ccccn4)c4c(Cl)cnn4c3)c1C)C2 [Example 5, (R)-1-(2-(4-(3-chloro-4-(2-hydroxy-1-(pyridin-2-yl)ethoxy)pyrazolo[1,5-a]pyridin-6-yl)-5-methyl-1H-pyrazol-1-yl)-7-azaspiro[3.5]nonan-7-yl)prop-2-en-1-one]	≥ 1000 nM	≥ 1000 nM	250 to 1000 nM	≥ 1000 nM
250 to 1000 nM	100 to 250 nM	100 to 250 nM	250 to 1000 nM	250 to 1000 nM	C=CC(=O)N1CCC2(CC1)CC(n1ncc(-c3cc(O[C@@H](CO)c4ccccn4)c4c(C#N)cnn4c3)c1C)C2 [Example 7, (R)-6-(1-(7-acryloyl-7-azaspiro[3.5]nonan-2-yl)-5-methyl-1H-pyrazol-4-yl)-4-(2-hydroxy-1-(pyridin-2-yl)ethoxy)pyrazolo[1,5-a]pyridine-3-carbonitrile]	≥ 1000 nM	250 to 1000 nM	100 to 250 nM	250 to 1000 nM
250 to 1000 nM	100 to 250 nM	100 to 250 nM	100 to 250 nM	250 to 1000 nM	C=CC(=O)N1CCC2(CC1)CC(n1ncc(-c3cc(OC(CO)c4ccnn4C)c4c(C#N)cnn4c3)c1C)C2 (centres unmarked) [Example 11, 6-(1-(7-acryloyl-7-azaspiro[3.5]nonan-2-yl)-5-methyl-1H-pyrazol-4-yl)-4-(2-hydroxy-1-(1-methyl-1H-pyrazol-5-yl)ethoxy)pyrazolo[1,5-a]pyridine-3-carbonitrile]	≥ 1000 nM	≥ 1000 nM	250 to 1000 nM	≥ 1000 nM
100 to 250 nM	0.1 to 100 nM	0.1 to 100 nM	0.1 to 100 nM	0.1 to 100 nM	CCC(=O)N1CC(C(=O)N2CCC(n3nnc(-c4cc(OC(CO)c5ccccn5)c5c(C#N)cnn5c4)c3C)CC2)C1 (centres unmarked) [Example 16, 4-(2-hydroxy-1-(pyridin-2-yl)ethoxy)-6-(5-methyl-1-(1-(1-propionylazetidine-3-carbonyl)piperidin-4-yl)-1H-1,2,3-triazol-4-yl)pyrazolo[1,5-a]pyridine-3-carbonitrile]				
